Target: Poly(ADP-ribose) glycohydrolase (Homo sapiens, UniProt Q86W56)
Assay: Inhibition of recombinant human PARG assessed as mono(ADP-R) release using PAR as substrate measured after 15 mins by HPLC analysis

Chain of Poly(ADP-ribose) glycohydrolase (Q86W56 whole entry): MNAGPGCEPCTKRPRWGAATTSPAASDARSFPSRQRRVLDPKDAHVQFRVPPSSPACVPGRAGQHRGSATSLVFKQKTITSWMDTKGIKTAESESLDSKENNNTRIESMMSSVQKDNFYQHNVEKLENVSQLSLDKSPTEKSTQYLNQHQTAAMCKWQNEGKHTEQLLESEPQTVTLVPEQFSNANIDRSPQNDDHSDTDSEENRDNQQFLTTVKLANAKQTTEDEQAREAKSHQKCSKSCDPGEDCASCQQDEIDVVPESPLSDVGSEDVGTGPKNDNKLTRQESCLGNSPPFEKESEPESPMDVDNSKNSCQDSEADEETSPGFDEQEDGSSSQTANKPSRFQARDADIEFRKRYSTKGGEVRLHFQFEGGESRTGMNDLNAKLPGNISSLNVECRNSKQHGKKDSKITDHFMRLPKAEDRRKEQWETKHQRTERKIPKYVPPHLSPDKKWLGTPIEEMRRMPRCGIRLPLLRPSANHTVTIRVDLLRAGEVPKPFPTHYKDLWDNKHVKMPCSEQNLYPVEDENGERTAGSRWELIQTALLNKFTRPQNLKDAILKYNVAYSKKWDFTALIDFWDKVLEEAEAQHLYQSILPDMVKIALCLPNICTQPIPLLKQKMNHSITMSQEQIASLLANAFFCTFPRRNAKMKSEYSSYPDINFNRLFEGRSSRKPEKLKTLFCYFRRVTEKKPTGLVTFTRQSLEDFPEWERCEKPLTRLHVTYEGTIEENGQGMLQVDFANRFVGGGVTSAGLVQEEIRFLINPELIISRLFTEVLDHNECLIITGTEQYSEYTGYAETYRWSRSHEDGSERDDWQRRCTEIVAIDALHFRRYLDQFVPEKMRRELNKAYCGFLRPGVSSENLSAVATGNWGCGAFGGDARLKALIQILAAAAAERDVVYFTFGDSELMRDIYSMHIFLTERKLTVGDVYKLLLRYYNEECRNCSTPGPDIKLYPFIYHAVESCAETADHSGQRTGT

SMILES	IC50
O=C(O)c1c(Cl)c(Cl)c(Cl)c(Cl)c1-c1c2cc(I)c(=O)c(I)c-2oc2c(I)c(O)c(I)cc12 [ROSE BENGAL FREE ACID]	29.7 µM
O=C(O)c1ccccc1-c1c2cc(I)c(=O)c(I)c-2oc2c(I)c(O)c(I)cc12	120 µM
O=C(O)c1ccccc1-c1c2cc(Br)c(=O)c(Br)c-2oc2c(Br)c(O)c(Br)cc12	> 300 µM
O=C(O)c1c(Cl)c(Cl)c(Cl)c(Cl)c1-c1c2cc(Br)c(=O)c(Br)c-2oc2c(Br)c(O)c(Br)cc12	106 µM
O=C(O)c1c(Cl)ccc(Cl)c1-c1c2cc(I)c(=O)c(I)c-2oc2c(I)c(O)c(I)cc12	61.4 µM

Source: ChEMBL document CHEMBL4616596, “Structural insights into the active site of poly(ADP-ribose) glycohydrolase using docking modes of 6-hydroxy-3H-xanthen-3-one derivative inhibitors” (Bioorg Med Chem, 2020)
